Source: patent publication US12497409B2, “Crystal form of gonadotropin releasing hormone antagonist, preparation method therefor, and use thereof” (Shenzhen Rentai Pharmatech Ltd., priority 2019, dated 2025)
Each block holds one compound with its values, some of them ahead of it.

Assays:
Format in all cases: physicochemical
[1] = Saturation solubility in water (HPLC); details: for Saturation solubility: in water, room temperature, stirred for 12 hours, excess solid, HPLC; for solubility, in words: saturation solubility, forms C and D compared with crystal form A
Excerpt: Samples for test: a crystal form C and a crystal form D of a compound of a formula (I), their preparation methods being respectively shown in Example 1 and Example 2, a preparation method of the crystal form A of the compound of the formula (I) being shown in Comparative example 1.
Test method: the crystal form A, the crystal form C, and the crystal form D of the compound of the formula (I) were respectively taken, to measure their saturation solubility in water, a specific method was: a suitable amount of the samples for test were respectively taken, and put into a […] sample bottle, 3 ml of a water solution was added, the solid was excess, and the obtained solution was placed at room temperature and stirred for 12 hours, and solubility in water was measured by using an HPLC method. The operation conditions of HPLC are as follows:
instrument: high performance liquid chromatograph (model: Thermo U3000)
chromatographic column: Agilent C18 column (5 μm, 150 mm×4.6 mm)
mobile phase composition and gradient elution program: […]
Detection wavelength: 254.4 nm;
column temperature: 30° C.

[2] = Hygroscopicity test, dynamic vapor sorption (DVS); details: for hygroscopicity, in words: forms C and D compared with crystal form A
[3] = Stability test (illumination, high temperature, high humidity; XRPD and HPLC purity); details: for Initial purity (day 0): day 0, before stress, HPLC; for crystal transformation (XRPD): 10 days
Protocol: Illumination stability: samples of the crystal form C and the crystal form D of the compound of the formula (I) (respectively prepared in Example 1 and Example 2) were respectively taken and placed at 25° C. under an illumination condition of 4500 Lux for 10 days, and samples were taken respectively on day 5 and day 10 at fixed time points to determine XRPD patterns of the crystal forms C and D and the content of N-(4-(1-(2,6-difluorobenzyl)-5-((dimethylamino)methyl)-3-(6-methoxy-3-pyridazinyl)-2,4-dioxo-1,2,3,4-tetrahydrothieno[2,3-d]pyrimidin-6-yl)phenyl)-N′-methoxyurea in the crystal forms C and D, which were compared with those of the samples on day 0. High temperature stability: samples of the crystal form C and the crystal form D of the compound of the formula (I) (respectively prepared in Example 1 and Example 2) were respectively taken and placed at 60° C. for 10 days, and samples were taken respectively on day 5 and day 10 at fixed time points to determine XRPD patterns of the crystal forms C and D and the content of N-(4-(1-(2,6-difluorobenzyl)-5-((dimethylamino)methyl)-3-(6-methoxy-3-pyridazinyl)-2,4-dioxo-1,2,3,4-tetrahydrothieno[2,3-d]pyrimidin-6-yl)phenyl)-N′-methoxyurea in the crystal form C and the crystal form D, which were compared with those of the samples on day 0. High humidity stability: samples of the crystal form C and the crystal form D of the compound of the formula (I) (respectively prepared in Example 1 and Example 2) were respectively taken and placed at 40° C. at 75% RH for 10 days, and samples were taken respectively on day 5 and day 10 at fixed time points to determine XRPD patterns of the crystal forms C and D and the content of N-(4-(1-(2,6-difluorobenzyl)-5-((dimethylamino)methyl)-3-(6-methoxy-3-pyridazinyl)-2,4-dioxo-1,2,3,4-tetrahydrothieno[2,3-d]pyrimidin-6-yl)phenyl)-N′-methoxyurea in the crystal form C and the crystal form D, which were compared with those of the samples on day 0. A specific stability test method can refer to the method in appendix XI C of Part II of Chinese Pharmacopoeia (2015 edition); the purity detection adopts an HPLC method, and the purity can be determined by an external standard method with reference to the method in appendix VD of Chinese Pharmacopoeia (2015 edition) by using the samples on day 0 as a reference substance. instrument: high performance liquid chromatograph (model: Thermo U3000) chromatographic column: Agilent C18 column (5 μm, 150 mm×4.6 mm) mobile phase composition and gradient elution program: [table] detection wavelength: 254.4 nm; flow rate: 1 ml/min; sample size:15 μL; column temperature: 30° C.

[4] = as above; details: high humidity (25° C., 92.5% RH), 10 days
[5] = 25° C., 4500 Lux (illumination), listed as crystal form C
[6] = 40° C., 75% RH (high humidity), listed as crystal form C
[7] = 60° C. (high temperature), listed as crystal form C
[8] = 25° C., 4500 Lux (illumination), listed as crystal form D
[9] = 40° C., 75% RH (high humidity), listed as crystal form D
[10] = 60° C. (high temperature), listed as crystal form D

Saturation solubility ([1]; listed as crystal form C): 101.75 µg/mL
solubility, in words ([1]; listed as crystal form C): significantly improved
hygroscopicity, in words ([2]; listed as crystal form C): significantly decreased
Purity change on day 10 [3, 5]: 0.49%
Purity on day 5 [3, 5]: 98.99%
Purity on day 10 [3, 5]: 98.84%
Purity change on day 10 [3, 6]: 3.33%
Purity on day 5 [3, 6]: 96.88%
Purity on day 10 [3, 6]: 96%
Purity change on day 10 [3, 7]: 2.58%
Purity on day 5 [3, 7]: 97.89%
Purity on day 10 [3, 7]: 96.75%
Initial purity (day 0) ([3]; listed as crystal form C): 99.33%
crystal transformation (XRPD) ([3]; high temperature (60° C.)): no crystal transformation
crystal transformation (XRPD) ([3]; strong illumination (25° C., 4500 Lux)): no crystal transformation
crystal transformation (XRPD) [4]: no crystal transformation
Compound: CONC(=O)Nc1ccc(-c2sc3c(c2CN(C)C)c(=O)n(-c2ccc(OC)nn2)c(=O)n3Cc2c(F)cccc2F)cc1 [Crystal form C, N-(4-(1-(2,6-difluorobenzyl)-5-((dimethylamino)methyl)-3-(6-methoxy-3-pyridazinyl)-2,4-dioxo-1,2,3,4-tetrahydrothieno[2,3-d]pyrimidin-6-yl)phenyl)-N′-methoxyurea]

Saturation solubility ([1]; listed as crystal form D): 87.21 µg/mL
solubility, in words ([1]; listed as crystal form D): significantly improved
hygroscopicity, in words ([2]; listed as crystal form D): significantly decreased
Purity change on day 10 [3, 8]: 0.50%
Purity on day 5 [3, 8]: 98.1%
Purity on day 10 [3, 8]: 98.57%
Purity change on day 10 [3, 9]: 1.86%
Purity on day 5 [3, 9]: 97.88%
Purity on day 10 [3, 9]: 97.21%
Purity change on day 10 [3, 10]: 2.56%
Purity on day 5 [3, 10]: 96.25%
Purity on day 10 [3, 10]: 96.51%
Initial purity (day 0) ([3]; listed as crystal form D): 99.07%
Compound: CONC(=O)Nc1ccc(-c2sc3c(c2CN(C)C)c(=O)n(-c2ccc(OC)nn2)c(=O)n3Cc2c(F)cccc2F)cc1 [Crystal form D, N-(4-(1-(2,6-difluorobenzyl)-5-((dimethylamino)methyl)-3-(6-methoxy-3-pyridazinyl)-2,4-dioxo-1,2,3,4-tetrahydrothieno[2,3-d]pyrimidin-6-yl)phenyl)-N′-methoxyurea]

Saturation solubility [1]: 28.50 µg/mL
solubility, in words ([1]; listed as crystal form A): low solubility
moisture absorption (hygroscopy gain) ([2]; 25° C., humidity gradually increased from 0 to 50% RH): 0.57%
hygroscopicity (hygroscopy gain) ([2]; 25° C., humidity gradually increased from 0 to 90% RH): 25.84%
hygroscopicity, in words ([2]; listed as crystal form A): high hygroscopicity
Compound: CONC(=O)Nc1ccc(-c2sc3c(c2CN(C)C)c(=O)n(-c2ccc(OC)nn2)c(=O)n3Cc2c(F)cccc2F)cc1 [Crystal form A, N-(4-(1-(2,6-difluorobenzyl)-5-((dimethylamino)methyl)-3-(6-methoxy-3-pyridazinyl)-2,4-dioxo-1,2,3,4-tetrahydrothieno[2,3-d]pyrimidin-6-yl)phenyl)-N′-methoxyurea]
